Experimental data published in the supplement of paper PMC5662764.
± gives the standard deviation of the averaged measurements.

Legend:
Experiment in all cases: normalised growth rate inhibition (GR value) relative to DMSO control (GR (1 = untreated growth, 0 = cytostasis, <0 = cytotoxic)); higher = less growth inhibition
Details in all cases: 72 h
BT20 = tested on: BT20
Description: (§1)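 Breast cancer cell lines (BT-20, Hs 578T, MCF 10A, MCF7, MDA-MB-231, SK-BR-3) were plated in 384-well plates and treated 24 h later with drugs at six concentrations (0.04-10 µM). Viable cells were counted by Hoechst/dead-cell-stain imaging at 0 and 72 h. Counts were normalised to DMSO controls on the same plate to give the relative cell count and the growth-rate inhibition (GR) value; technical plate triplicates were averaged for each biological replicate.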

HS578T = tested on: HS578T
Description: as §1

MCF10A = tested on: MCF10A
Description: as §1

MCF7 = tested on: MCF7
Description: as §1

MDAMB231 = tested on: MDAMB231
Description: as §1

SKBR3 = tested on: SKBR3
Description: as §1

SMILES | normalised growth rate inhibition (BT20; 0.04 µM) | normalised growth rate inhibition (BT20; 0.12 µM) | normalised growth rate inhibition (BT20; 0.37 µM) | normalised growth rate inhibition (BT20; 1.11 µM) | normalised growth rate inhibition (BT20; 3.33 µM) | normalised growth rate inhibition (BT20; 10 µM) | normalised growth rate inhibition (HS578T; 0.04 µM) | normalised growth rate inhibition (HS578T; 0.12 µM) | normalised growth rate inhibition (HS578T; 0.37 µM) | normalised growth rate inhibition (HS578T; 1.11 µM) | normalised growth rate inhibition (HS578T; 3.33 µM) | normalised growth rate inhibition (HS578T; 10 µM) | normalised growth rate inhibition (MCF10A; 0.04 µM) | normalised growth rate inhibition (MCF10A; 0.12 µM) | normalised growth rate inhibition (MCF10A; 0.37 µM) | normalised growth rate inhibition (MCF10A; 1.11 µM) | normalised growth rate inhibition (MCF10A; 3.33 µM) | normalised growth rate inhibition (MCF10A; 10 µM) | normalised growth rate inhibition (MCF7; 0.04 µM) | normalised growth rate inhibition (MCF7; 0.12 µM) | normalised growth rate inhibition (MCF7; 0.37 µM) | normalised growth rate inhibition (MCF7; 1.11 µM) | normalised growth rate inhibition (MCF7; 3.33 µM) | normalised growth rate inhibition (MCF7; 10 µM) | normalised growth rate inhibition (MDAMB231; 0.04 µM) | normalised growth rate inhibition (MDAMB231; 0.12 µM) | normalised growth rate inhibition (MDAMB231; 0.37 µM) | normalised growth rate inhibition (MDAMB231; 1.11 µM) | normalised growth rate inhibition (MDAMB231; 3.33 µM) | normalised growth rate inhibition (MDAMB231; 10 µM) | normalised growth rate inhibition (SKBR3; 0.04 µM) | normalised growth rate inhibition (SKBR3; 0.12 µM) | normalised growth rate inhibition (SKBR3; 0.37 µM) | normalised growth rate inhibition (SKBR3; 1.11 µM) | normalised growth rate inhibition (SKBR3; 3.33 µM) | normalised growth rate inhibition (SKBR3; 10 µM)
COC1=C2C[C@@H](C)C[C@H](OC)[C@H](O)[C@@H](C)/C=C(\C)[C@H](OC(N)=O)[C@@H](OC)/C=C\C=C(/C)C(=O)NC(=CC1=O)C2=O [geldanamycin] | 0.262 ± 0.1 | 0.00984 ± 0.086 | -0.0513 ± 0.1 | -0.0518 ± 0.12 | -0.114 ± 0.12 | -0.238 ± 0.1 | 0.762 ± 0.073 | 0.219 ± 0.12 | 0.143 ± 0.062 | 0.121 ± 0.071 | 0.0267 ± 0.14 | -0.11 ± 0.17 | 0.111 ± 0.066 | -0.0212 ± 0.045 | -0.0537 ± 0.053 | -0.0551 ± 0.04 | -0.0997 ± 0.049 | -0.171 ± 0.06 | 0.503 ± 0.079 | 0.134 ± 0.026 | 0.0361 ± 0.021 | 0.0592 ± 0.03 | -0.0316 ± 0.038 | -0.3 ± 0.085 | 0.443 ± 0.2 | 0.0763 ± 0.097 | 0.0142 ± 0.17 | -0.0565 ± 0.17 | -0.148 ± 0.15 | -0.284 ± 0.13 | 0.0174 ± 0.11 | -0.0672 ± 0.11 | -0.0584 ± 0.085 | -0.03 ± 0.059 | -0.187 ± 0.11 | -0.441 ± 0.14
Cc1ccc(NC(=O)c2ccc(CN3CCN(C)CC3)cc2)cc1Nc1nccc(-c2cccnc2)n1 [imatinib] | 1 ± 0.033 | 1.02 ± 0.075 | 0.99 ± 0.03 | 1.02 ± 0.037 | 0.991 ± 0.042 | 0.981 ± 0.057 | 0.997 ± 0.018 | 0.996 ± 0.011 | 1.01 ± 0.034 | 1.03 ± 0.041 | 1.05 ± 0.059 | 1.05 ± 0.11 | 1.002 ± 0.0079 | 1.001 ± 0.0023 | 0.9962 ± 0.003 | 1 ± 0.014 | 1.01 ± 0.018 | 0.998 ± 0.031 | 1.06 ± 0.084 | 1.08 ± 0.088 | 1.08 ± 0.076 | 1.06 ± 0.057 | 1.04 ± 0.075 | 0.9 ± 0.039 | 1.01 ± 0.055 | 0.999 ± 0.032 | 1.02 ± 0.04 | 1 ± 0.045 | 1.02 ± 0.028 | 0.915 ± 0.022 | 1.05 ± 0.04 | 1.07 ± 0.045 | 1.04 ± 0.061 | 1.08 ± 0.046 | 1.11 ± 0.066 | 0.991 ± 0.043
CS(=O)(=O)CCNCc1ccc(-c2ccc3ncnc(Nc4ccc(OCc5cccc(F)c5)c(Cl)c4)c3c2)o1 [lapatinib] | 0.857 ± 0.091 | 0.957 ± 0.075 | 0.965 ± 0.053 | 0.991 ± 0.062 | 0.958 ± 0.11 | 0.749 ± 0.15 | 0.982 ± 0.025 | 0.9754 ± 0.0072 | 0.976 ± 0.019 | 0.985 ± 0.015 | 1.01 ± 0.027 | 0.636 ± 0.14 | 0.975 ± 0.029 | 0.957 ± 0.034 | 0.943 ± 0.047 | 0.895 ± 0.075 | 0.747 ± 0.16 | 0.288 ± 0.17 | 0.803 ± 0.12 | 0.872 ± 0.13 | 0.947 ± 0.074 | 0.936 ± 0.092 | 0.926 ± 0.051 | 0.321 ± 0.14 | 0.878 ± 0.033 | 0.9385 ± 0.0078 | 0.955 ± 0.01 | 0.948 ± 0.025 | 0.947 ± 0.011 | 0.62 ± 0.11 | 0.0194 ± 0.093 | -0.00655 ± 0.072 | -0.0149 ± 0.1 | -0.0045 ± 0.12 | 0.00322 ± 0.13 | 0.133 ± 0.035
Cc1ccc(F)c(NC(=O)Nc2ccc(-c3cccc4[nH]nc(N)c34)cc2)c1 [linifanib] | 1.09 ± 0.014 | 1.07 ± 0.039 | 1.07 ± 0.032 | 1.08 ± 0.026 | 1.03 ± 0.011 | 0.544 ± 0.37 | 0.995 ± 0.011 | 0.979 ± 0.011 | 0.971 ± 0.025 | 0.969 ± 0.015 | 0.9497 ± 0.0069 | 0.701 ± 0.13 | 1.039 ± 0.0077 | 1.032 ± 0.0048 | 1.02 ± 0.012 | 1.02 ± 0.014 | 0.994 ± 0.029 | 0.716 ± 0.24 | 1.07 ± 0.12 | 0.996 ± 0.14 | 1.01 ± 0.12 | 0.939 ± 0.079 | 0.874 ± 0.061 | 0.0601 ± 0.092 | 1.08 ± 0.014 | 1.09 ± 0.03 | 1.08 ± 0.045 | 1.07 ± 0.053 | 1.06 ± 0.045 | 0.192 ± 0.29 | 1.11 ± 0.046 | 1.08 ± 0.025 | 1.11 ± 0.043 | 1.1 ± 0.078 | 1.09 ± 0.078 | 0.232 ± 0.072
C[C@]1(O)C[C@@H](c2nc(-c3ccc4ccc(-c5ccccc5)nc4c3)c3c(N)nccn32)C1 [linsitinib] | 0.841 ± 0.032 | 0.9 ± 0.032 | 0.949 ± 0.07 | 0.924 ± 0.054 | 0.896 ± 0.05 | 0.797 ± 0.051 | 0.975 ± 0.034 | 0.979 ± 0.024 | 0.93 ± 0.019 | 0.972 ± 0.048 | 0.963 ± 0.021 | 0.831 ± 0.072 | 0.956 ± 0.055 | 0.911 ± 0.081 | 0.824 ± 0.16 | 0.783 ± 0.18 | 0.731 ± 0.2 | 0.626 ± 0.26 | 0.721 ± 0.014 | 0.749 ± 0.12 | 0.555 ± 0.19 | 0.449 ± 0.14 | 0.383 ± 0.091 | 0.271 ± 0.089 | 0.791 ± 0.048 | 0.843 ± 0.067 | 0.861 ± 0.085 | 0.862 ± 0.068 | 0.838 ± 0.081 | 0.697 ± 0.099 | 0.657 ± 0.19 | 0.765 ± 0.11 | 0.806 ± 0.067 | 0.739 ± 0.072 | 0.678 ± 0.064 | 0.538 ± 0.085
O=C1c2c(O)ccc(O)c2C(=O)c2c(NCCNCCO)ccc(NCCNCCO)c21 [mitoxantrone] | 0.252 ± 0.12 | 0.0494 ± 0.084 | -0.0983 ± 0.12 | -0.205 ± 0.14 | -0.243 ± 0.12 | -0.461 ± 0.18 | 0.0811 ± 0.1 | -0.0173 ± 0.041 | -0.0612 ± 0.043 | -0.207 ± 0.087 | -0.394 ± 0.11 | -0.511 ± 0.17 | 0.228 ± 0.057 | 0.0237 ± 0.034 | -0.00408 ± 0.025 | -0.0492 ± 0.02 | -0.186 ± 0.1 | -0.142 ± 0.092 | 0.0337 ± 0.042 | 0.0173 ± 0.037 | 0.0313 ± 0.056 | -0.141 ± 0.11 | -0.348 ± 0.039 | -0.59 ± 0.15 | -0.0551 ± 0.058 | -0.0634 ± 0.075 | -0.137 ± 0.1 | -0.222 ± 0.15 | -0.327 ± 0.24 | -0.48 ± 0.21 | -0.0581 ± 0.17 | -0.0745 ± 0.18 | -0.0948 ± 0.2 | -0.164 ± 0.17 | -0.353 ± 0.13 | -0.707 ± 0.16
CCOc1cc2ncc(C#N)c(Nc3ccc(OCc4ccccn4)c(Cl)c3)c2cc1NC(=O)/C=C/CN(C)C [neratinib] | 0.724 ± 0.042 | 0.669 ± 0.069 | 0.617 ± 0.11 | 0.528 ± 0.11 | 0.41 ± 0.12 | 0.301 ± 0.13 | 0.887 ± 0.0023 | 0.81 ± 0.0089 | 0.649 ± 0.085 | 0.485 ± 0.22 | 0.274 ± 0.24 | 0.0282 ± 0.1 | 0.441 ± 0.24 | 0.314 ± 0.19 | 0.191 ± 0.11 | 0.168 ± 0.098 | 0.131 ± 0.058 | 0.122 ± 0.054 | 0.722 ± 0.12 | 0.663 ± 0.081 | 0.585 ± 0.042 | 0.419 ± 0.23 | 0.299 ± 0.21 | 0.0822 ± 0.12 | 0.907 ± 0.13 | 0.868 ± 0.15 | 0.728 ± 0.12 | 0.581 ± 0.23 | 0.387 ± 0.29 | 0.0691 ± 0.39 | -0.108 ± 0.19 | -0.114 ± 0.2 | -0.14 ± 0.19 | -0.118 ± 0.22 | -0.152 ± 0.22 | -0.215 ± 0.19
